The values that follow come from patent publication US4740233A, “Substituted 1,2,4-triazolo[1,5-a]-pyrimidine-2-sulfonamides and compositions and methods of controlling undesired vegetation and suppressing the nitrification of ammonium nitrogen in soil” (The Dow Chemical Company, priority 1986, dated 1988).

This assay deals with nitrification of ammonium nitrogen. The assay is described as follows: Suppression of nitrification of ammonium nitrogen in soil. Particulars: 27° C. On the procedure:
A sufficient volume of water was added to 20 g of the soil in a wide-mouth, screw-cap, 4-ounce, glass bottle, such that the moisture content of the mixture was made equal to the 1/3 bar tension value for that soil. The mixture was thoroughly mixed before sealing. […] Acetone slows the rate of soil nitrification and its concentration must be carefully controlled. Single samples of each test chemical were incubated for two weeks at 27° C.
The experiment comprised the following types of samples:
The soil samples were analyzed as follows: Sufficient ammonium sulfate extracting solution was added to the sample, such that the total volume of added water was 50 ml (included water added during sample preparation). The capped mixture was shaken 10 minutes to solubilize nitrate and the soil particulates were allowed to settle. The nitrate concentration in the water phase was determined with a nitrate-specific ion electrode such as Orion Model 93-07.
The non-nitrate nitrogen remaining (% NH4 -N remaining) in the soil after two weeks (performance value) was calculated as follows: [formula]

The structures appear in SMILES notation.

With `Cc1cc(C)n2nc(S(=O)(=O)Nc3c(C)cccc3C(=O)Oc3ccccc3)nc2n1` [Compound 75], the “% NH4-N Remaining After 2 Weeks Incubation” value by setting is: (0.06 ppm) 25%; (0.25 ppm) 61%; (1 ppm) 67%; (4 ppm) 86%.

Consider `Cc1cc(C)n2nc(S(=O)(=O)Nc3ccc(Cl)cc3C(=O)N(C)C)nc2n1` [Compound 43], for which the “% NH4-N Remaining After 2 Weeks Incubation” value runs as follows: (0.01 ppm) 0%; (0.1 ppm) 0%; (1 ppm) 44%; (10 ppm) 91%.

With `Cc1c(C(=O)O)cnc2nc(S(=O)(=O)Nc3c(Cl)cccc3Cl)nn12` [Compound 224], the “% NH4-N Remaining After 2 Weeks Incubation” value (0.06 ppm) was determined as 1%, the “% NH4-N Remaining After 2 Weeks Incubation” value (0.25 ppm) was found to be 0%, the “% NH4-N Remaining After 2 Weeks Incubation” value (1 ppm) was found to be 27% and the “% NH4-N Remaining After 2 Weeks Incubation” value (4 ppm) is given as 63%.

As to `COC(=O)c1ccc(C(=O)OC)c(NS(=O)(=O)c2nc3nc(C)cc(C)n3n2)c1` [Compound 102], the “% NH4-N Remaining After 2 Weeks Incubation” value was 0% (0.6 ppm); 0% (1.25 ppm); 0% (2.5 ppm); 24% (5 ppm); 44% (10 ppm).

Consider `Cc1cc(C)n2nc(S(=O)(=O)Nc3c(C)cccc3C(=O)OCCN(C)C)nc2n1` [Compound 73], for which the “% NH4-N Remaining After 2 Weeks Incubation” value is, setting by setting: (0.06 ppm) 26%; (0.25 ppm) 47%; (1 ppm) 41%; (4 ppm) 62%.

In the case of `Cc1cc(C)n2nc(S(=O)(=O)Nc3cc(Cl)cc(Cl)c3)nc2n1` [Compound 24], the “% NH4-N Remaining After 2 Weeks Incubation” value turned out to be 0% (0.01 ppm), 28% (0.1 ppm), 65% (1 ppm) and 83% (10 ppm).

Regarding `Cc1cc(C)n2nc(S(=O)(=O)Nc3nc4c(Cl)cccc4s3)nc2n1` [Compound 258], the “% NH4-N Remaining After 2 Weeks Incubation” value reads like this: (0.01 ppm) 0%; (0.1 ppm) 0%; (1 ppm) 23%; (10 ppm) 78%.

Turning to `Cc1cc(C)n2nc(S(=O)(=O)Nc3ccncc3)nc2n1` [Compound 253], the “% NH4-N Remaining After 2 Weeks Incubation” value reads like this: (0.01 ppm) 0%; (0.1 ppm) 5%; (1 ppm) 0%; (10 ppm) 17%.

Take `O=S(=O)(Nc1ccccc1)c1nc2ncc(Cl)cn2n1` [Compound 120]: the “% NH4-N Remaining After 2 Weeks Incubation” value by setting is: (0.06 ppm) 71%; (0.25 ppm) 46%; (1 ppm) 63%; (4 ppm) 87%.

For `Cc1cc(C)n2nc(S(=O)(=O)Nc3cccnc3Cl)nc2n1` [Compound 255], the “% NH4-N Remaining After 2 Weeks Incubation” value (0.01 ppm) is given as 0%, the “% NH4-N Remaining After 2 Weeks Incubation” value (0.1 ppm) is reported as 0%, the “% NH4-N Remaining After 2 Weeks Incubation” value (1 ppm) stood at 37% and the “% NH4-N Remaining After 2 Weeks Incubation” value (10 ppm) was found to be 72%.

`Cc1cc(Cl)c(NS(=O)(=O)c2nc3nc(C)cc(C)n3n2)c(Cl)c1` [Compound 47]: the “% NH4-N Remaining After 2 Weeks Incubation” value (0.01 ppm) came to 0%, the “% NH4-N Remaining After 2 Weeks Incubation” value (0.1 ppm) came to 40%, the “% NH4-N Remaining After 2 Weeks Incubation” value (1 ppm) is 73% and the “% NH4-N Remaining After 2 Weeks Incubation” value (10 ppm) stood at 92%.

Consider `Cc1cc(C)n2nc(S(=O)(=O)Nc3nccs3)nc2n1` [Compound 256], for which the “% NH4-N Remaining After 2 Weeks Incubation” value runs as follows: (0.01 ppm) 20%; (0.1 ppm) 13%; (1 ppm) 10%; (10 ppm) 48%.

`Cc1cc(C)n2nc(S(=O)(=O)Nc3cc(Cl)ccc3Cl)nc2n1` [Compound 21]: the “% NH4-N Remaining After 2 Weeks Incubation” value (0.01 ppm) was found to be 8%, the “% NH4-N Remaining After 2 Weeks Incubation” value (0.1 ppm) worked out at 42%, the “% NH4-N Remaining After 2 Weeks Incubation” value (1 ppm) is listed as 68% and the “% NH4-N Remaining After 2 Weeks Incubation” value (10 ppm) amounted to 86%.

With `O=S(=O)(Nc1c(F)cccc1Cl)c1nc2ncc(Cl)cn2n1` [Compound 116], the “% NH4-N Remaining After 2 Weeks Incubation” value (0.06 ppm) was found to be 27%, the “% NH4-N Remaining After 2 Weeks Incubation” value (0.25 ppm) was found to be 50%, the “% NH4-N Remaining After 2 Weeks Incubation” value (1 ppm) is recorded as 57% and the “% NH4-N Remaining After 2 Weeks Incubation” value (4 ppm) is 81%.

In the case of `Cc1cc(C)n2nc(S(=O)(=O)Nc3c(C)cccc3Br)nc2n1` [Compound 58], the “% NH4-N Remaining After 2 Weeks Incubation” value runs as follows: (0.06 ppm) 92%; (0.25 ppm) 48%; (1 ppm) 58%; (4 ppm) 80%.

For `O=[N+]([O-])c1ccc(-c2cnc3nc(S(=O)(=O)Nc4c(Cl)cccc4Cl)nn3c2)cc1` [Compound 226], the “% NH4-N Remaining After 2 Weeks Incubation” value worked out at 2% (0.06 ppm), 17% (0.25 ppm), 42% (1 ppm) and 69% (4 ppm).

On to `COC(=O)c1cccc(C)c1NS(=O)(=O)c1nc2nc(C)ccn2n1` [Compound 146], for which the “% NH4-N Remaining After 2 Weeks Incubation” value (0.06 ppm) is 19%, the “% NH4-N Remaining After 2 Weeks Incubation” value (0.25 ppm) amounted to 48%, the “% NH4-N Remaining After 2 Weeks Incubation” value (1 ppm) stood at 60% and the “% NH4-N Remaining After 2 Weeks Incubation” value (4 ppm) was 79%.

For the compound `COC(=O)c1cccc(F)c1NS(=O)(=O)c1nc2nc(C)ccn2n1` [Compound 159], the “% NH4-N Remaining After 2 Weeks Incubation” value runs as follows: (0.06 ppm) 49%; (0.25 ppm) 56%; (1 ppm) 80%; (4 ppm) 94%.

Take `Cc1cc(C)n2nc(S(=O)(=O)Nc3ccccc3SC(C)(C)C)nc2n1` [Compound 80]: the “% NH4-N Remaining After 2 Weeks Incubation” value by setting is: (0.06 ppm) 0%; (0.25 ppm) 0%; (1 ppm) 20%; (4 ppm) 43%.

In the case of `Cc1cc(C)n2nc(S(=O)(=O)Nc3cccc(Cl)c3C)nc2n1` [Compound 68], the “% NH4-N Remaining After 2 Weeks Incubation” value came to 0% (0.06 ppm), 20% (0.25 ppm), 16% (1 ppm) and 57% (4 ppm).

As for `Cc1nc2nc(S(=O)(=O)Nc3ccccc3C(=O)OC(C)C)nn2c2c1CCC2` [Compound 110], the “% NH4-N Remaining After 2 Weeks Incubation” value (0.01 ppm) is 0%, the “% NH4-N Remaining After 2 Weeks Incubation” value (0.1 ppm) was determined as 0%, the “% NH4-N Remaining After 2 Weeks Incubation” value (1 ppm) stood at 13% and the “% NH4-N Remaining After 2 Weeks Incubation” value (10 ppm) amounted to 59%.

Take `Cc1cc(C)n2nc(S(=O)(=O)Nc3ncc(Cl)cc3Cl)nc2n1` [Compound 251]: the “% NH4-N Remaining After 2 Weeks Incubation” value reads like this: (0.01 ppm) 0%; (0.1 ppm) 0%; (1 ppm) 0%; (10 ppm) 29%.

In the case of `Cc1cc(C)n2nc(S(=O)(=O)Nc3ccccc3C(=O)OC(C)C)nc2n1` [Compound 36], the “% NH4-N Remaining After 2 Weeks Incubation” value is, setting by setting: (0.01 ppm) 0%; (0.1 ppm) 0%; (1 ppm) 17%; (10 ppm) 60%.

Consider `Cc1cc(C)n2nc(S(=O)(=O)Nc3c(C)cccc3C(=O)OC(C)C)nc2n1` [Compound 64], for which the “% NH4-N Remaining After 2 Weeks Incubation” value by setting is: (0.06 ppm) 19%; (0.25 ppm) 43%; (1 ppm) 62%; (4 ppm) 81%.

Turning to `Cc1cc(C)n2nc(S(=O)(=O)Nc3c(C)cccc3C(=O)O)nc2n1` [Compound 103], the “% NH4-N Remaining After 2 Weeks Incubation” value runs as follows: (0.06 ppm) 0%; (0.25 ppm) 15%; (1 ppm) 43%; (4 ppm) 53%.

`Cc1cc(C)n2nc(S(=O)(=O)Nc3ncccc3Cl)nc2n1` [Compound 252]: the “% NH4-N Remaining After 2 Weeks Incubation” value is on record as 0% (0.01 ppm), 0% (0.1 ppm), 38% (1 ppm) and 82% (10 ppm).

As for `Cc1cc(C)n2nc(S(=O)(=O)Nc3ccccc3SC(F)(F)C(F)F)nc2n1` [Compound 59], the “% NH4-N Remaining After 2 Weeks Incubation” value was 11% (0.06 ppm), 33% (0.25 ppm), 51% (1 ppm) and 66% (4 ppm).

In the case of `Cc1cc(C)n2nc(S(=O)(=O)Nc3ccccc3SC(F)(F)F)nc2n1` [Compound 55], the “% NH4-N Remaining After 2 Weeks Incubation” value by setting is: (0.06 ppm) 19%; (0.25 ppm) 91%; (1 ppm) 65%; (4 ppm) 84%.

With `Cc1cc(C)n2nc(S(=O)(=O)Nc3ccccc3O)nc2n1` [Compound 3], the “% NH4-N Remaining After 2 Weeks Incubation” value by setting is: (0.01 ppm) 0%; (0.1 ppm) 0%; (1 ppm) 0%; (10 ppm) 25%.
